Assay [1] concerns the target caMC4R. Nature of the assay: Ligand binding assay, caMC4R (displacement of ^125I-NDP-MSH). Also noted: species or system Channa argus (Northern snakehead). The conditions noted are these: HEK293T cells, 48 h after transfection, competition with ^125I-NDP-MSH, 1-h incubation, DMEM/BSA, gamma counter, mean ± SEM of at least three independent experiments.
The test system of assay [2] is caMC4R. Nature of the assay: cAMP assay, caMC4R. It is filed as cell-based, Channa argus (Northern snakehead). The conditions noted are these: HEK293T cells.
Assay [3] concerns brain gnih, sgnrh and cgnrh; ovarian genes. The conditions noted are these: black rockfish, ref not given, cited from earlier work. The text has this:
In addition to energy homeostasis, MC4R also regulates reproduction and sexual function. Compared with mammals, the evidence of MC4R in regulating teleost reproduction is relatively scarce. In swordtail fish, nonfunctional Y-linked mc4r copies in larger males act as dominant-negative mutants and delay puberty onset. In spotted scat, MC4R stimulates gnrh expression in the hypothalamus, thereby modulating pituitary FSH and LH synthesis.

Assay [4] relates to MC4R. The following applies: ref [36],[59],[65]; cited from earlier work. An excerpt:
(decreased cell surface expression), or zebrafish and topmouth culter (increased cell surface expression). Therefore, MRAP2 has a differential effect on MC4R membrane expression in different species. […] In topmouth culter, two isoforms of MRAP2 are also sho ...

In assay [5] the test system is goldfish. The following applies: intracerebroventricular, ref [25]; cited from earlier work. An excerpt: MC4R has been investigated in several non-mammalian vertebrates including ectotherm fish, such as goldfish, rainbow trout, spotted scat, grass carp, ricefield eel, orange-spotted grouper, and topmouth culter. Similar to mammalian MC4Rs, teleost MC4R is also involved in regulating food intake and maintaining energy balance. […] Meanwhile, intracerebroventricular administration of M ...

Consider `CSCC[C@H](NC(=O)[C@H](CCCNC(=N)N)NC(=O)[C@H](Cc1ccc(O)cc1)NC(=O)[C@@H]1CCCN1C(=O)CNC(=O)[C@H](CCC(=O)O)NC(=O)[C@H](CC(=O)O)NC(=O)[C@H](CCCCN)NC(=O)[C@H](CCCCN)NC(=O)[C@H](CCC(=O)O)NC(=O)[C@H](C)N)C(=O)N[C@@H](CCC(=O)O)C(=O)N[C@@H](Cc1c[nH]cn1)C(=O)N[C@@H](Cc1ccccc1)C(=O)N[C@@H](CCCNC(=N)N)C(=O)N[C@@H](Cc1c[nH]c2ccccc12)C(=O)NCC(=O)N[C@@H](CO)C(=O)N1CCC[C@H]1C(=O)N1CCC[C@H]1C(=O)N[C@@H](CCCCN)C(=O)N[C@@H](CC(=O)O)C(=O)O` [β-MSH], for which the IC50 in assay [1] stood at 329 ± 120 nM. Moreover, the “maximal response at caMC4R in comparison with hMC4R” value in assay [2] (caMC4R vs hMC4R, cAMP) is listed as “higher maximal responses than hMC4R”. Moreover, in assay [2] (caMC4R, % of hMC4R, cAMP by RIA, 1 h at 37 °C, maximal response, mean ± SEM of at least three independent experiments), the Rmax is on record as 163.9 ± 89.36%. The molecule further came in with an EC50 in assay [2] (caMC4R, cAMP by RIA, 0.5 mM isobutylmethylxanthine, 1 h at 37 °C, 10^−12 to 10^−6 M NDP-MSH and ACTH (1–24), 10^−11 to 10^−5 M α-MSH and β-MSH, mean ± SEM of at least three independent experiments) of 2.49 ± 0.81 nM. Also, in assay [3] (in vitro), the “expression of brain gnih, sgnrh and cgnrh” value was “increase brain gnih and decrease sgnrh and cgnrh expression in vitro”. The “expression of ovarian genes” value in assay [3] is on record as “affect expression of some ovarian genes”.

Turning to ACTH, in assay [4], the “ligand sensitivity of MC4R to ACTH in the presence of MRAP2” value was “increasing ligand sensitivity to ACTH”.

On to HS024, for which the “food intake” value in assay [5] is reported as “stimulates food intake”.

As for melanotan II, in assay [5], the “food intake” value is given as “inhibits food intake”.

(Values after paper PMC8004712, “MRAP2 Interaction with Melanocortin-4 Receptor in SnakeHead (Channa argus)” (Biomolecules, 2021).)
